According to US6369101B1, “Therapeutic method to treat herpes virus infection” (Regents of the University of Minnesota, priority 1999, dated 2002):
Converted amounts (≈) assume the structure as drawn. Where a name gives a salt, the structure may show the parent alone. Read-outs that look alike come from different tables or passages of the source.

Experiments:
[1] = system: Primary human foreskin fibroblast cells (HFF); assay: Cell proliferation assay (cytotoxicity) in HFF cells; type: cell-based; conditions: for CC50: Human foreskin fibroblast cells, reduces growth of uninfected cells by 50%; for Qualitative Cytotoxic Effect at 2.0 ml dose: HFF cells, solution conc. per compound (ng/ml) (Acyclovir 250)
Experimental: (§1) Human laryngeal epithelial carcinoma cells (HEp-2, ATCC, Rockville, Md.) were used for testing of antiviral compounds by cytopathic effect (CPE) inhibition and plaque reduction assay. […] HEp-2, African green monkey kidney cells (Vero, ATCC), HFF and primary rabbit kidney cells were used to determine the cytotoxic effect of compounds of formula I. These cells were propagated in Dulbeco's modified Eagle's medium (DMEM) (Sigma, USA) supplemented with 10% inactivated fetal calf serum (FCS), 25 mM HEPES, 0.2% sodium bicarbonate and 1% penicillin/-streptomycin at 37° C. in the presence of 5% CO2.
(§2) HFF, Vero and HEp-2 cells were seeded in 24-well tissue culture plates at a concentration of […] in DMEM containing 10% FCS and incubated for 24 hours at 37° C. in the presence of 5% CO2. To the monolayer of these cells 0.5, 1.0, 1.5 and 2.0 ml of solution of antiviral compounds were added in the respective wells in duplicate and the cells were then incubated in a 5% CO2 incubator at 37° C. for 72 hours. The cells were observed daily for any change in morphology. […] At the end of this time, the media-drug solution was removed and the cells washed. One ml of 0.25% trypsin was added to each well and incubated until the cells start to come off of the plate. The cells-media mixture was then pipetted up and down several times to resuspend the cells and 0.2 ml of the cell suspension was added to 9.8 ml of trypan blue and cells were counted using hemocytometer. Each sample was counted three times with three replicate wells per sample.

HSV-2 strain G = assay: CPE inhibition, HSV-2 strain G in HEp-2 cells; note: key: +++ = Complete cytopathic effect; ++ = Moderate cytopathic effect; + = Minimum cytopathic effect; − = No cytopathic effect; type: cell-based, herpes simplex virus type 2; conditions: conc. per compound (ng/ml)
Text: (§3) Human laryngeal epithelial carcinoma cells (HEp-2, ATCC, Rockville, Md.) were used for testing of antiviral compounds by cytopathic effect (CPE) inhibition and plaque reduction assay. Primary human foreskin fibroblast cells (HFF) obtained from Dr. E. R. Kern (Department of Pediatrics, University of Alabama Medical School, 309 Bevill Biomedical Research Building, 845 19th Street South, Birmingham, Ala., 35294-2170), were used for cytopathic effect (CPE) inhibition assay. HEp-2, African green monkey kidney cells (Vero, ATCC), HFF and primary rabbit kidney cells were used to determine the cytotoxic effect of compounds of formula I. These cells were propagated in Dulbeco's modified Eagle's medium (DMEM) (Sigma, USA) supplemented with 10% inactivated fetal calf serum (FCS), 25 mM HEPES, 0.2% sodium bicarbonate and 1% penicillin/-streptomycin at 37° C. in the presence of 5% CO2.
(§4) The antiviral activity of the test compounds was determined against HSV-1 strain F, HSV-2 strain G (ATCC), HSV-1 strain E-377 and HSV-2 strain MS (Dr. E. R. Kern, see above), CMV strain AD 169 (NIH), HCMV (NIH), MCMV (NIH), and VZV strain Ellen (NIH). Highly infective virus stocks of HSV-1 and HSV-2 were prepared by infecting a confluent monolayer of HEp-2 (ATCC) or HFF in 150 cm^2 plastic tissue culture flasks (Falcon, USA) at a multiplicity of infection of 0.5 in DMEM supplemented with 10% inactivated fetal calf serum and 1% penicillin/streptomycin at 37° C. in the presence of 5% CO2. The infected cells were disrupted through three freeze/thaw cycles, and viruses were clarified from large cell debris by low speed centrifugation at 3000 rpm for 10 minutes. The virus suspension was separated, aliquoted and stored at −80° C. until assayed or used for animal infection. The stock HSV-1 (E377) and HSV-2 (MS strain) contained 3.5×10^8 and 1.1×10^7 pfu/ml respectively.
(§5) Low passage HFF cells were seeded into 96-well tissue culture plates 24 hours prior to use at a cell concentration of 2.5×10^4 cells per ml in 0.2 ml of DMEM supplemented with 10% fetal calf serum. After 24 hours of incubation at 37° C. in the presence of 5% CO2, medium was removed and the test compounds were diluted two-fold in DMEM in the 96-well tissue culture plate containing monolayer. […] For both HSV-1 and HSV-2 assays, the virus concentration utilized was 1000 pfu/ml and for HCMV, MCMV, and VZV assay 2500 pfu/ml were used. The plates were then incubated at 37° C. in the presence of 5% CO2 for two to three days for HSV-1 and HSV-2, 10 days for VZV and 14 days for HCMV and MCMV. The virus induced cytopathic effect (CPE) was monitored microscopically every day. CPE of HSV-1 was recognized by cell rounding and clumping, while HSV-2 formed large syncytia along with rounding and clumping of cells. […] EC50s were estimated from graphical plots of percent CPE against the concentration of the test compounds. The EC50s for each compound are the mean of EC50s for three or more independent experiments. After three days of incubation period, media was aspirated and the cells stained with a 0.1% crystal violet solution for 30 minutes. The stain was then removed and the plates were rinsed with tap water, air dried and retained.

HSV-1 strain E-377 = assay: CPE inhibition assay, HSV-1 E377 in human foreskin fibroblast cells; for Qualitative CPE at 2.0 ml dose HSV-1 E377: key: +++ = Complete cytopathic effect; ++ = Moderate cytopathic effect; + = Minimum cytopathic effect; − = No cytopathic effect; type: cell-based, herpes simplex virus type 1; conditions: for EC50: Human alphaherpesvirus 1, HFF, read-out: EC50 HSV-1 E377; for Qualitative CPE at 2.0 ml dose HSV-1 E377: solution conc. per compound (ng/ml) (Acyclovir 250)
Experimental: (§6) Stock solutions of the compounds used for the testing of antiviral activity against HSV-1 and HSV-2 were prepared in distilled water, filtered through 0.2 μm filter (Acrodisco®, Gelman Sciences, USA) and stored at room temperature until used.
as §3, §4, §5

HSV-1 strain F = assay: CPE inhibition, HSV-1 strain F in HEp-2 cells; note: key: +++ = Complete cytopathic effect; ++ = Moderate cytopathic effect; + = Minimum cytopathic effect; − = No cytopathic effect; type: cell-based, herpes simplex virus type 1; conditions: conc. per compound (ng/ml)
Text: as §3, §4, §5

[2] = system: Human laryngeal epithelial carcinoma cells (HEp-2); assay: Cytotoxicity in HEp-2 cells; type: cell-based; conditions: HEp-2 cells; conc. per compound (ng/ml)
Experimental: as §1, §2

HSV-2 strain MS = assay: CPE inhibition assay, HSV-2 MS in human foreskin fibroblast cells; for Qualitative CPE at 2.0 ml dose HSV-2 MS: key: +++ = Complete cytopathic effect; ++ = Moderate cytopathic effect; + = Minimum cytopathic effect; − = No cytopathic effect; type: cell-based, herpes simplex virus type 2; conditions: for EC50: Human alphaherpesvirus 2, HFF, read-out: EC50 HSV-2 MS; for Qualitative CPE at 2.0 ml dose HSV-2 MS: HFF cells, solution conc. per compound (ng/ml) (Acyclovir 250)
Experimental: as §6, §3, §4, §5

Epstein-Barr Virus = assay: VCA expression in EBV-infected Daudi cells; conditions: Epstein-Barr Virus, Daudi cells, VCA; test compounds in DMSO
Text: Raji is a Burkitt's lymphoma cell line containing 60 EBV genome/cell, and was the primary cell used for screening antiviral activity against EBV early antigen (EA) expression. […] It spontaneously expresses EBV EA in 0.25-0.5% of the cells. It was used in follow-up studies to confirm activity. These cell lines respond to superinfection by EBV by expressing EA-diffuse component EA (D), EA restricted component EA (R), and viral capsid antigen (VCA). […] The cultures were fed twice weekly and the cell concentration was adjusted to 3×10^5/ml. The cells were kept at 37° C. in humidified atmosphere with 5% CO2.
Cells were infected with the P3HR-1 strain of HBV and the test compound was added after adsorption (45 minutes at 37° C.) and washing of the cell cultures. The cultures were incubated for two days in complete medium to allow viral gene expression. Following the 48 hours of incubation, the numbers of cells of each sample was counted and smears were made. Monoclonal antibodies to the different EA components and VCA were then added to the cells and then incubated and washed. This is followed by a fluorescein conjugated rabbit anti-mouse IgG antibody, and the number of fluorescence cells in the smear were counted. The total number of cells in the cultures positive for EA or VCA were then calculated and compared.

Varicella-Zoster Virus = assay: CPE inhibition in stationary cells (visual), VZV in HFF cells; type: cell-based; conditions: test compounds in DMSO
Human Cytomegalovirus = assay: CPE inhibition in stationary cells (visual), HCMV in HFF cells; type: cell-based; conditions: test compounds in DMSO
[3] = Cell proliferation assay (cytotoxicity) in HFF cells; type: cell-based, human; conditions: Human foreskin fibroblast cells, reduces growth of uninfected cells by 50%
Experimental: as §1, §2

Molecule	CC50 [1] [µg/mL]	Cytopathic Effect (CPE) Inhibition HSV-2 Strain G (HSV-2 strain G)	EC50 HSV-1 E377 (HSV-1 strain E-377; CPE inhibition in HFF cells) [µg/mL]	Cytopathic Effect (CPE) Inhibition HSV-1 Strain F (HSV-1 strain F)	Cell Cytotoxicity [2]	EC50 HSV-2 MS (HSV-2 strain MS; CPE inhibition in HFF cells) [µg/mL]	also measured
CC1(C)CCC23CC[C@@]4(C)C(CCC5[C@@]6(C)CCC(OP(=O)(O)O)C(C)(C)C6CC[C@]54C)C2C1OC3 (some centres unmarked) [Allobetulin 3-phosphate, Allobetulin Phosphate]	>0.125	++	>0.25	+++	−	0.25	anti HSV-1 activity (in words) (HSV-1 strain E-377; HFF cells, HSV-1 (E377)): significant activity
CC1(C)CCC23CCC4(C)C(CCC5C6(C)CCC(OC(=O)CO)C(C)(C)C6CCC54C)C2C1OC3 (centres unmarked) [Allobetulin 3-glycolate, Allobetulin, 3-Glycolate]	>0.25	++	>0.25	+++	−	0.125 (≈ 0.25 µM)	
Betulin glycerol oxalate							EC50 (Epstein-Barr Virus): 0.0072 µg/mL; EC50 (Varicella-Zoster Virus): >0.02 µg/mL; EC50 (Human Cytomegalovirus): >0.1 µg/mL
CC1(C)CCC23CCC4(C)C(CCC5C6(C)CCC(OC(=O)c7ccccc7C(=O)O)C(C)(C)C6CCC54C)C2C1OC3 (centres unmarked) [Allobetulin 3-phthalate, Allobetulin, 3-Phthalate]	>0.25	++	>0.25	++	−	0.25 (≈ 0.423 µM)	
CC1(C)CCC23CCC4(C)C(CCC5C6(C)CCC(OC(=O)CCC(=O)O)C(C)(C)C6CCC54C)C2C1OC3 (centres unmarked) [Allobetulin Succinate, Allobetulin, 3-Succinate]	>0.25	+	>0.25	++	−	>0.25	
CC1(C)CCC23CC[C@]4(C)C(CCC5[C@@]6(C)C=C(O)C(=O)C(C)(C)C6CC[C@]54C)C2C1OC3=O (some centres unmarked) [Example 13, Allobetulonlacton 1-ene-2-ol]							melting point: 238.8 to 243.6 °C (dec.)
CC1(C)CCC23CC[C@]4(C)C(CCC5[C@@]6(C)CC(Br)C(=O)C(C)(C)C6CC[C@]54C)C2C1OC3=O (some centres unmarked) [Example 12, 2-Br-Allobetulonlacton]							melting point: 338 to 342.8 °C (dec.)
Cc1ccc(S(=O)(=O)OC2CC[C@@]3(C)C(CC[C@]4(C)C3CCC3C5C6OCC5(CCC6(C)C)CC[C@]34C)C2(C)C)cc1 (some centres unmarked) (as salt: tosylate) [Example 9, Allobetulin Tosylate]							melting point: 180 to 182.6 °C (dec.)
CC1(C)CCC23CC[C@]4(C)C(CCC5[C@@]6(C)CCC(O)C(C)(C)C6CC[C@]54C)C2C1OC3=O (some centres unmarked) [Allobetulin lactone, Allobetulin-Lactone]		++		+++	−		CC50 at 72 h [3]: > 0.125 µg/mL; EC50 (HSV-1 strain E-377): > 0.125 µg/mL; EC50 (HSV-2 strain MS): 0.2 µg/mL (≈ 0.438 µM)
CC1(C)CCC23CC[C@]4(C)C(CCC5[C@@]6(C)CCC(=O)C(C)(C)C6CC[C@]54C)C2C1OC3=O (some centres unmarked) [Example 10, Allobetulon Lactone]							melting point: 333.7 to 335.9 °C (dec.)
CC1(C)CCC23CC[C@]4(C)C(CCC5[C@@]6(C)CCC(=O)C(C)(C)C6CC[C@]54C)C2C1OC3 (some centres unmarked) [Allobetulon]		++		++	−		CC50 at 72 h ([3]; primary human foreskin fibroblast (HFF) cells): 0.3 µg/mL (≈ 0.681 µM); Qualitative Cytotoxic Effect at 2.0 ml dose [1]: −; Qualitative CPE at 2.0 ml dose HSV-1 E377 (HSV-1 strain E-377; HFF cells): +++; EC50 (HSV-1 strain E-377; CPE inhibition in HFF cells): 0.3 µg/mL (≈ 0.681 µM); Qualitative CPE at 2.0 ml dose HSV-2 MS (HSV-2 strain MS): +++; EC50 (HSV-2 strain MS; CPE inhibition in HFF cells): 0.3 µg/mL (≈ 0.681 µM)
Allobetulin ethanolamine chlorohydrate	0.125		0.125			0.125	
Allobetulin ethanolamine	0.2		>0.25			>0.25	
CC(=O)OC1CCC2(C)C(CCC3(C)C2CCC2C4C5OC(=O)C4(CCC5(C)C)CCC23C)C1(C)C (stereo not drawn) [3β-Acetoxy-19αH-19,28lactone-oleanan, Allobetulin-3-acetyl lactone (3β-Acetoxy-19αH-19,28-lactone-oleanane)]	0.225 (≈ 0.451 µM)	++	0.225 (≈ 0.451 µM)	++	−	0.125 (≈ 0.251 µM)	Qualitative Cytotoxic Effect at 2.0 ml dose [1]: +; Qualitative CPE at 2.0 ml dose HSV-1 E377 (HSV-1 strain E-377; HFF cells): +++; Qualitative CPE at 2.0 ml dose HSV-2 MS (HSV-2 strain MS): ++
